#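 Following 48 hours of exposure in 96-well plates, responses at five concentrations were used to interpolate endpoints linearly. Abbreviation: GI50, concentration required for 50% inhibition of growth. TGI is the concentration that stops growth completely.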
# Assays:
# Test in all cases: growth of human tumour cells (NCI), 48 h
# [1] = test system: OVCAR-3 ovarian
# [2] = test system: OVCAR-4 ovarian
# [3] = test system: HS 578T breast
# [4] = test system: M14 melanoma
# [5] = test system: HOP-92 NSCLC
# [6] = test system: MDA-MB-231 breast
# [7] = test system: SK-MEL-28 melanoma
# [8] = test system: SK-MEL-2 melanoma
# [9] = test system: SW-620 colon
# [10] = test system: SF-268 CNS
Compound,GI50 [1] [µM],TGI [1] [µM],GI50 [2] [µM],TGI [2] [µM],GI50 [3] [nM],TGI [3] [µM],GI50 [4] [nM],TGI [4] [µM],GI50 [5] [nM],TGI [5] [µM],GI50 [6] [µM],TGI [6] [µM],GI50 [7] [µM],TGI [7] [µM],GI50 [8] [µM],TGI [8] [µM],GI50 [9] [µM],TGI [9] [µM],GI50 [10] [µM],TGI [10] [µM]
O=S(=O)([O-])c1ccc2c(c1)-c1nc-2nc2[n-]c(nc3nc(nc4[n-]c(n1)c1ccc(S(=O)(=O)[O-])cc41)-c1cc(S(=O)(=O)[O-])ccc1-3)c1ccc(S(=O)(=O)[O-])cc21.[Cu+2].[Na+],> 28.3,> 100,5.31,> 80.4,> 100000,> 100,> 37400,> 100,38900,> 100,> 100,> 100,> 100,> 100,> 100,> 100,10.8,> 71,> 69.8,> 100
CC(C)(C)C(=O)OCOP(=O)(OCOC(=O)C(C)(C)C)C1CCCN(O)C1=O (stereo not given),0.559,> 100,0.508,59.7,314,8.27,693,14.1,695,51.5,0.397,20,0.321,1.14,1.55,8.76,0.493,42.6,0.441,20.2
CCN1CCN(c2ccc(Nc3cc(N(C)C(=O)Nc4c(Cl)c(OC)cc(OC)c4Cl)ncn3)cc2)CC1,5.67,15.9,0.851,12.1,1340,9.2,1450,3.1,2280,27.3,1.99,4.15,1.87,3.46,7.12,22.7,2.42,9.76,2.41,28
COc1cc(Nc2cn[nH]c2-c2ccc(Cl)cc2)cc(OC)c1OC,3.44,14.4,7.93,> 100,3880,63.1,2500,9.41,2730,33.4,6.79,> 90.3,6.45,56.7,6.82,41.5,3.87,23.7,6.76,> 70.5
COc1ncnc(C2CC2)c1-c1ncc2cnn(Cc3ccc(-c4nc(C(F)(F)F)cn4C(C)C)cc3)c2n1,22.2,76.5,14.2,75.6,17800,> 100,28100,> 100,6410,73.5,22.9,> 100,19.1,71.3,14.5,30.4,28,> 100,16.2,80.9
COc1ccc(C(=O)c2cc(OC)c(C)c(OC)c2)cc1OC(=O)CCl,0.336,10.8,1.22,> 100,314,> 100,69.3,12.2,3220,58.5,0.353,18.6,0.732,40.4,0.671,66.1,0.211,> 100,1.33,> 100
Oc1ccc(Cl)cc1Cc1cc(Cl)cc(Cl)c1O,2.83,16.5,3.48,23.3,2610,8.97,4610,23,1190,6.42,7.92,48.1,4.83,31.7,5.53,29,5.37,19.9,3.82,57.9
